Results on 17 compounds are retold here after patent US20160016907A1, “PYRIDINE DERIVATIVES AS MUSCARINIC M1 RECEPTOR POSITIVE ALLOSTERIC MODULATORS” (PFIZER INC., priority 2014, published 2016).

The target in this test is T1, human M1 muscarinic acetylcholine receptors (Homo sapiens, UniProt P11229).
T1 sequence (P11229 1-460): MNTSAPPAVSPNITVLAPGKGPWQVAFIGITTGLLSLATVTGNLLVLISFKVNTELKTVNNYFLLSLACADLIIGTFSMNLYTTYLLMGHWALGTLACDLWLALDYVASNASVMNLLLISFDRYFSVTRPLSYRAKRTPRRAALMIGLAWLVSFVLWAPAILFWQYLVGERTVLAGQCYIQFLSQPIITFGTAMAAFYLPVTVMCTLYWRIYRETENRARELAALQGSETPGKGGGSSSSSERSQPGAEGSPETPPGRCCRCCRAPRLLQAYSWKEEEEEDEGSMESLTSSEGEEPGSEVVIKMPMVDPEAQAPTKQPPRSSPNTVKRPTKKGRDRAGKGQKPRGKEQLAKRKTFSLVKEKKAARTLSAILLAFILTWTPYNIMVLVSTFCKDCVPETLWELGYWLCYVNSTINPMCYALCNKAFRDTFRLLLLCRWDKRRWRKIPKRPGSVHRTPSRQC
The experiment in a line: M1 FLIPR assay (PAM, intracellular calcium). Format: cell-based. As to conditions: potentiation of EC10-EC30 acetylcholine, values marked a: geometric mean of ≧7 determinations, read-out: M1 PAM Inflection Point (μM) Geometric mean of 2-6 determinations (unless otherwise indicated). The protocol:
This assay was designed to select and characterize compounds that affect the activity of human M1 muscarinic acetylcholine receptors (Similar M1 PAM FLIPR assays can be found, for example, at U.S. Pat. No. 8,664,234). Human M1 receptors were stably expressed in Chinese hamster ovary (CHO) cells (HD Bioscience). The effect of test compounds on intracellular calcium was measured on an FLIPR Tetra (Molecular Devices) using the Fluo-8, AM calcium dye (Molecular Probes) with a red dye quenching agent (Sigma).
CHO cells expressing hM1 cells had been previously cultured and frozen in assay ready vials. Cell vials were thawed, then plated at a density of 10,000 cells per well in a 384 well black wall, clear bottom plate (Greiner #781090) and incubated overnight at 37 degrees C. with 5% CO2. Cells were grown and plated in F12 nutrient media (Gibco BRL #21700-075) supplemented with 10% FBS (Hyclone #CH30160.03) and Pen/Strep (Gibco #15070-063).
After overnight incubation, cell plates were removed from the incubator and the growth media was discarded and replaced with loading solution containing the following: 2 μM Fluo-8-AM (Molecular Probes #F14242), 2 mM Probenecid (Sigma #P8761), lx Acid Red 1 (Sigma #210633), in HBSS buffer containing (grams/L): 0.1 CaCl2, 0.1 MgCl2*6H2O, 0.049 MgSO4, 0.4 KCl, 0.06 KH2PO4, 8.06 NaCl, 0.12 Na2HPO4*12H2O, 1.1 D-glucose*H2O, 0.35 NaHCO3, 4.766 HEPES, pH 7.4. The plate was incubated in the loading solution at 37 degrees C. in the dark for 1 hour.
Test compounds were initially prepared as 100% DMSO stock solutions, then transferred and serially diluted in 384-well compound plates (Greiner #784201). Each compound was tested at 10 concentrations in duplicate per experiment. Positive and negative controls for positive allosteric modulator evaluation were 30 μM acetylcholine (Ach) and an EC10-EC30 concentration of acetylcholine, approximately 2 nM but could be adjusted for each experiment to maintain the EC10-EC30 range.
After the 1-hour dye loading incubation, test compounds were added to the cell plate containing Fluo-8. Approximately 10 minutes after compound addition, an EC10-EC30 concentration of acetylcholine was added to each well and the fluorescence measured to determine the PAM potentiation of the compound.
Data was exported from the FLIPR Tetra as maximum fluorescence/minimum fluorescence for each well. The percent effect for each compound well was determined using the mean values for the positive and negative controls on each plate for each read. Percent effect was 100*(compound negative control)/(positive control negative control). Dose response curves were fitted to the compound percent effect data using a 4-parameter logistic fit model to determine PAM (positive allosteric modulator) Inflection Point values. Compounds with inverted U dose response curves had the concentrations greater than the concentration giving the peak response excluded from the fit. Data was reported as Inflection Point. The compounds of Examples 1-72 had activity according to this assay, generally with an Inflection Point (IP) of 10 μM or less (using Inflection Point as a measure of activity). Such a result is indicative of the intrinsic activity of the compounds of the invention as M1 allosteric modulators.

Regarding `O=C(N[C@H]1CCOC[C@@H]1O)c1cc(Cc2ccc(-n3cccn3)cc2)c(Cl)cn1` [Example 52, 5-chloro-N-[(3R,4S)-3-hydroxytetrahydro-2H-pyran-4-yl]-4-[4-(1H-pyrazol-1-yl)benzyl]pyridine-2-carboxamide], the EC50 stood at 0.187 µM.

Take `Cc1c[n+]([O-])c(C(=O)N[C@H]2CCOC[C@@H]2O)cc1Cc1ccc(-n2cccn2)cc1` [Example 53, N-[(3R,4S)-3-hydroxytetrahydro-2H-pyran-4-yl]-5-methyl-4-[4-(1H-pyrazol-1-yl)benzyl]pyridine-2-carboxamide 1-oxide]: the EC50 was determined as 0.271 µM. Consider `O=C(N[C@H]1CCOC[C@@H]1O)c1cc(Cc2ccc(-n3cccn3)cc2)c(C(F)F)cn1` [Example 54, 5-(difluoromethyl)-N-[(3R,4S)-3-hydroxytetrahydro-2H-pyran-4-yl]-4-[4-(1H-pyrazol-1-yl)benzyl]pyridine-2-carboxamide], for which the EC50 was 0.198 µM. With `Cc1cnc(C(=O)N[C@H]2CCOC[C@@H]2O)cc1[C@@H](F)c1ccc(-n2cccn2)cc1` [Example 55, 4-{(S)-Fluoro[4-(1H-pyrazol-1-yl)phenyl]methyl}-N-[(3R,4S)-3-hydroxytetrahydro-2H-pyran-4-yl]-5-methylpyridine-2-carboxamide] the figure was greater than 9.12 µM; with `Cc1cnc(C(=O)N[C@H]2CCOC[C@@H]2O)cc1[C@H](F)c1ccc(-n2cccn2)cc1` [Example 56, 4-{(R)-Fluoro[4-(1H-pyrazol-1-yl)phenyl]methyl}-N-[(3R,4S)-3-hydroxytetrahydro-2H-pyran-4-yl]-5-methylpyridine-2-carboxamide], 0.03 µM.

In the case of `Cc1cnc(C(=O)N[C@H]2CCOC[C@@H]2O)cc1Cc1ccc(-c2cocn2)cc1` [Example 57, N-[(3R,4S)-3-Hydroxytetrahydro-2H-pyran-4-yl]-5-methyl-4-[4-(1,3-oxazol-4-yl)benzyl]pyridine-2-carboxamide], the EC50 stood at 0.144 µM. The value for `COc1cnc(C(=O)N[C@H]2CCOC[C@@H]2O)cc1Cc1ccc(-c2coc(C)n2)cc1` [Example 58, N-[(3R,4S)-3-Hydroxytetrahydro-2H-pyran-4-yl]-5-methoxy-4-[4-(2-methyl-1,3-oxazol-4-yl)benzyl]pyridine-2-carboxamide] was 0.086 µM.

As for `Cc1cnc(C(=O)N[C@H]2CCOC[C@@H]2O)cc1Cc1ccc(-c2cn(C)nc2C)cc1` [Example 61, 4-[4-(1,3-Dimethyl-1H-pyrazol-4-yl)benzyl]-N-[(3R,4S)-3-hydroxytetrahydro-2H-pyran-4-yl]-5-methylpyridine-2-carboxamide], the EC50 turned out to be 0.116 µM. With `O=C(N[C@H]1CCOC[C@@H]1O)c1cc(Cc2ccc(-n3cccn3)cc2)c(OC(F)F)cn1` [Example 62, 5-(difluoromethoxy)-N-[(3R,4S)-3-hydroxytetrahydro-2H-pyran-4-yl]-4-[4-(1H-pyrazol-1-yl)benzyl]pyridine-2-carboxamide] the figure was 0.129 µM; with `Cc1cnc(C(=O)N[C@H]2CCOC[C@@H]2O)cc1Cc1ccc(-c2cnn(C)c2)nc1` [Example 65, N-[(3R,4S)-3-hydroxytetrahydro-2H-pyran-4-yl]-5-methyl-4-{[6-(1-methyl-1H-pyrazol-4-yl)pyridin-3-yl]methyl}pyridine-2-carboxamide], 0.18 µM. With `Cc1cnc(C(=O)N[C@H]2CCOC[C@@H]2O)cc1Cc1ccc(-c2cn[nH]c2)cc1` [Example 66, N-[(3R,4S)-3-hydroxytetrahydro-2H-pyran-4-yl]-5-methyl-4-[4-(1H-pyrazol-4-yl)benzyl]pyridine-2-carboxamide] the figure was 0.114 µM; with `Cc1cnc(C(=O)N[C@H]2CCOC[C@@H]2O)cc1Cc1ccc(-c2cnn(C)c2)cc1` [Example 67, N-[(3R,4S)-3-hydroxytetrahydro-2H-pyran-4-yl]-5-methyl-4-[4-(1-methyl-1H-pyrazol-4-yl)benzyl]pyridine-2-carboxamide], 0.052 µM.

As for `COc1cnc(C(=O)N[C@H]2CCOC[C@@H]2O)cc1Cc1ccc(-c2cscn2)cc1` [Example 68, N-[(3R,4S)-3-hydroxytetrahydro-2H-pyran-4-yl]-5-methoxy-4-[4-(1,3-thiazol-4-yl)benzyl]pyridine-2-carboxamide], the EC50 came out at 0.074 µM. With `Cc1nc(-c2ccc(Cc3cc(C(=O)N[C@H]4CCOC[C@@H]4O)ncc3C)cc2)cs1` [Example 69, N-[(3R,4S)-3-hydroxytetrahydro-2H-pyran-4-yl]-5-methyl-4-[4-(2-methyl-1,3-thiazol-4-yl)benzyl]pyridine-2-carboxamide] the figure was 0.048 µM; with `COc1cnc(C(=O)N[C@H]2CCCC[C@@H]2O)cc1Cc1ccc(-n2cccn2)cc1` [Example 70, N-[(1S,2S)-2-hydroxycyclohexyl]-5-methoxy-4-[4-(1H-pyrazol-1-yl)benzyl]pyridine-2-carboxamide], 0.104 µM. The value for `COc1cnc(C(=O)N[C@H]2CCCC[C@@H]2O)cc1Cc1ccc(-c2cocn2)cc1` [Example 71, N-[(1S,2S)-2-hydroxycyclohexyl]-5-methoxy-4-[4-(1,3-oxazol-4-yl)benzyl]pyridine-2-carboxamide] was 0.125 µM; that for `COc1cnc(C(=O)N[C@H]2CCCC[C@@H]2O)cc1Cc1ccc(-c2coc(C)n2)cc1` [Example 72, N-[(1S,2S)-2-hydroxycyclohexyl]-5-methoxy-4-[4-(2-methyl-1,3-oxazol-4-yl)benzyl]pyridine-2-carboxamide] was 0.142 µM.
